Experimental data: ChEMBL document CHEMBL6096719, “Kidney Targeting Smart Antibiotic Discovery: Multimechanism Pleuromutilins for Pyelonephritis Therapy” (J Med Chem, 2025); call rule not given here
Converted amounts (≈) assume the structure as drawn.

What was measured:
[1] = Aqueous solubility of the compound incubated for 12 hrs by UV-Vis spectrophotometry; type: physicochemical; conditions: buffer
[2] = test system: Staphylococcus aureus; test: Antibacterial activity against methicillin-resistant Staphylococcus aureus 171 assessed as inhibition of bacterial growth incubated for 24 hrs by broth microdilution method; type: functional
[3] = test system: Staphylococcus aureus; test: Antibacterial activity against methicillin-resistant Staphylococcus aureus 575 assessed as inhibition of bacterial growth incubated for 24 hrs by broth microdilution method; type: functional
[4] = test system: Staphylococcus aureus; test: Antibacterial activity against methicillin-resistant Staphylococcus aureus 206 assessed as inhibition of bacterial growth incubated for 24 hrs by broth microdilution method; type: functional
[5] = test system: Staphylococcus aureus; test: Antibacterial activity against methicillin-resistant Staphylococcus aureus 222 assessed as inhibition of bacterial growth incubated for 24 hrs by broth microdilution method; type: functional
[6] = test system: Staphylococcus aureus; test: Antibacterial activity against methicillin-resistant Staphylococcus aureus 596 assessed as inhibition of bacterial growth incubated for 24 hrs by broth microdilution method; type: functional
[7] = test system: Enterococcus; test: Antibacterial activity against vancomycin-resistant Enterococcus 80 assessed as inhibition of bacterial growth incubated for 24 hrs by broth microdilution method; type: functional
[8] = test system: Pseudomonas aeruginosa; test: Antibacterial activity against multidrug-resistant Pseudomonas aeruginosa 126 assessed as inhibition of bacterial growth incubated for 24 hrs by broth microdilution method; type: functional
[9] = test system: Klebsiella pneumoniae; test: Antibacterial activity against multidrug-resistant Klebsiella pneumoniae 893 assessed as inhibition of bacterial growth incubated for 24 hrs by broth microdilution method; type: functional
[10] = test system: Acinetobacter baumannii; test: Antibacterial activity against carbapenem-resistant Acinetobacter baumannii 882 assessed as inhibition of bacterial growth incubated for 24 hrs by broth microdilution method; type: functional
[11] = Cytotoxicity against human HepG2 cells assessed as reduction in cell viability incubated for 24 hrs by CCK8 assay; type: toxicity, cell-based
[12] = Cytotoxicity against human HEK293 cells assessed as reduction in cell viability incubated for 24 hrs by CCK8 assay; type: toxicity, cell-based
[13] = Cytotoxicity against human A549 cells assessed as reduction in cell viability incubated for 24 hrs by CCK8 assay; type: toxicity, cell-based
[14] = test system: Staphylococcus aureus; test: (§1) Antibacterial activity against methicillin-resistant Staphylococcus aureus ATCC33591 infected in systemic intraperitoneal infection Kunming mouse model assessed as decrease in inflammation, neutrophil infiltration, alveolar structure destruction, leukocyte infiltration, interstitial thickening in lungs at 5 mg/kg, ip treated at 1 hr post-infection and measured after 7 days by Hematoxylin-Eosin staining based analysis; type: functional, organism-based; conditions: time 7.0 day
[15] = test system: Staphylococcus aureus; test: as §1, with “inflammation and” for “inflammation,”, “infiltration” for “infiltration, alveolar structure destruction, leukocyte infiltration, interstitial thickening”, “liver” for “lungs”; type: functional, organism-based; conditions: time 7.0 day
[16] = test system: Staphylococcus aureus; test: as §1, with “inflammation and” for “inflammation,”, “infiltration” for “infiltration, alveolar structure destruction, leukocyte infiltration, interstitial thickening”, “kidney” for “lungs”; type: functional, organism-based; conditions: time 7.0 day
[17] = test system: Staphylococcus aureus; test: as §1, with “infiltration and disordered spleen” for “infiltration, alveolar”, “structure” for “structure destruction, leukocyte infiltration, interstitial thickening in lungs”; type: functional, organism-based; conditions: time 7.0 day
[18] = Toxicity against methicillin-resistant Staphylococcus aureus ATCC33591 infected systemic intraperitoneal infection Kunming mouse model assessed as animal's mortality at 5 mg/kg, ip treated at 1 hr post-infection and measured after 7 days; type: organism-based; conditions: in vivo, 168 h, time 7 day
[19] = target: Solute carrier family 22 member 1 (Homo sapiens, UniProt O15245); test: Inhibition of human OCT1 transfected in HEK293 cells assessed as decrease in intracellular ASP accumulation at 200 uM incubated for 10 mins followed by incubation with ASP for 5 mins by fluorescence based analysis; type: cell-based; conditions: hek293, 0.25 h, time 15 min
Solute carrier family 22 member 1, sequence (O15245 whole entry): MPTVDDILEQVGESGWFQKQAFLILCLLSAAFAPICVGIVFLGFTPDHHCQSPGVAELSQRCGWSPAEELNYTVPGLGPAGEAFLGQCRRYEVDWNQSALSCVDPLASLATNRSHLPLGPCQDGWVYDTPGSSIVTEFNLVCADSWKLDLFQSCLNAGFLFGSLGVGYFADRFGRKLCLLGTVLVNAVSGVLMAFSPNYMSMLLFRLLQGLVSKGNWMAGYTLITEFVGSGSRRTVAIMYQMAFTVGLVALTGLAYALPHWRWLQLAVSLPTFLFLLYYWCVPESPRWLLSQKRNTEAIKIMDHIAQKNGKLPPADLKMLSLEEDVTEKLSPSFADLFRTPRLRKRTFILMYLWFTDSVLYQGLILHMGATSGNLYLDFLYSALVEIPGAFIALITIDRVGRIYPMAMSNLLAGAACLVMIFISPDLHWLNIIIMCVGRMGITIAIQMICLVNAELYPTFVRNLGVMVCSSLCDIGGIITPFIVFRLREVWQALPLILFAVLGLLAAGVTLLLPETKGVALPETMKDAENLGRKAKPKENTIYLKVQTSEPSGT

[20] = target: T1, Solute carrier family 22 member 2 (Homo sapiens, UniProt O15244); test: Inhibition of human OCT2 transfected in HEK293 cells assessed as decrease in intracellular ASP accumulation at 100 uM incubated for 10 mins followed by incubation with ASP for 5 mins by fluorescence based analysis; type: cell-based; conditions: hek293, 0.25 h, time 15 min
T1 sequence (O15244 whole entry): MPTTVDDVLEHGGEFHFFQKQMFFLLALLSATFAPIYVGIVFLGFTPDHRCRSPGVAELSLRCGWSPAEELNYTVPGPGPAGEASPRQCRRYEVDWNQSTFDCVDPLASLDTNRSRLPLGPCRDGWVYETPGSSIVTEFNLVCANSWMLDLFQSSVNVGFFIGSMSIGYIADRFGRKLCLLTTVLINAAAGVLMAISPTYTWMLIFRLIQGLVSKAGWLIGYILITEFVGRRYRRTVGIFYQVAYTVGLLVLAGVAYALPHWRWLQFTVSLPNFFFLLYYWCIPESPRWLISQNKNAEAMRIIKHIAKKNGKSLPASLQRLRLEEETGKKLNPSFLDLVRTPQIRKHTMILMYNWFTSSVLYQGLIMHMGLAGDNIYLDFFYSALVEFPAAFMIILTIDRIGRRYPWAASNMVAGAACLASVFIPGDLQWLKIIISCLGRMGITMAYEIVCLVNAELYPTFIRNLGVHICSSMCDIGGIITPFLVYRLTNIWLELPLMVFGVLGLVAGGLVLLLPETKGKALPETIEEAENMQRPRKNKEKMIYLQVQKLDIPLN

Row | Compound | solubility at 12 h [1] | MIC [2] | MIC [3] | MIC [4] | MIC [5] | MIC [6] | MIC [7] | MIC [8] | MIC [9] | MIC [10] | CC50 at 24 h [11] | CC50 at 24 h [12] | CC50 at 24 h [13] | Activity [14] | Activity [15] | Activity [16] | Activity [17] | Activity [18] | inhibition (INH) [19] | inhibition (INH) [20]
1 | C=C[C@]1(C)C[C@@H](OC(=O)CSC(C)(C)CNC(=O)[C@H](N)C(C)C)[C@]2(C)[C@H](C)CC[C@]3(CCC(=O)[C@H]32)[C@@H](C)[C@@H]1O [VALNEMULIN] | 218 µg/mL (≈ 386 µM) | > 128 µg/mL | 128 µg/mL (≈ 227 µM) | 64 µg/mL (≈ 113 µM) | 64 µg/mL (≈ 113 µM) | > 128 µg/mL | 64 µg/mL (≈ 113 µM) | 64 µg/mL (≈ 113 µM) | 32 µg/mL (≈ 56.7 µM) | 64 µg/mL (≈ 113 µM) | 77.3 µM | 65.4 µM | 53.7 µM | Active; Slight Without Complete Recovery Observed | Active; Slight Without Complete Recovery Observed | Active; Slight Without Complete Recovery Observed | Active; Slight Without Complete Recovery Observed | Toxic |  | 
2 | CN(C)CCC=C1c2ccccc2CCc2ccccc21 [AMITRIPTYLINE] |  |  |  |  |  |  |  |  |  |  |  |  |  |  |  |  |  |  | Active | Active
